From PubChem BioAssay AID1745844 (Carcinogenic Potency Database (CPDB), 2022)
“And” between values parts separate entries of the source, which are not always exact repeats. Equal values may be shown once. The source made the active and inactive calls. No rule for the calls is given here.

Tested on: rodent lifetime carcinogenesis bioassay, tumor incidence TD50
Assay: carcinogenic potency in animals, long-term in vivo studies, CPDB compilation (AID 1745844)

O=NN1CCCN(N=O)CC1
TD50 (rat, strain Fischer 344, females, in drinking water, site: esophagus, lesion: several types, types named in the paper, dosed 30 weeks, study length 133 weeks): 0.253 mg/kg/day
TD50 (rat, strain Fischer 344, females, in drinking water, site: esophagus, lesion: several types, types named in the paper, dosed 60 weeks, study length 82 weeks): 0.0553 mg/kg/day
TD50 (rat, strain Fischer 344, females, in drinking water, site: esophagus, lesion: several types, types named in the paper, dosed 120 weeks, study length 133 weeks): 0.105 mg/kg/day
carcinogen call (rat, strain Fischer 344, females, in drinking water, site: liver, lesion: several types, types named in the paper, dosed 30 weeks, study length 133 weeks): positive
TD50 (rat, strain Fischer 344, females, in drinking water, site: liver, lesion: several types, types named in the paper, dosed 120 weeks, study length 133 weeks): 0.0973 mg/kg/day
carcinogen call (rat, strain Fischer 344, females, in drinking water, site: nasal cavity, lesion: olfactory carcinoma, dosed 30 weeks, study length 133 weeks): positive
TD50 (rat, strain Fischer 344, females, in drinking water, site: nasal cavity, lesion: olfactory carcinoma, dosed 60 weeks, study length 82 weeks): 0.207 mg/kg/day
TD50 (rat, strain Fischer 344, females, in drinking water, site: tongue, lesion: basal-cell papilloma, dosed 120 weeks, study length 133 weeks): 0.63 mg/kg/day
TD50 (rat, strain Fischer 344, females, in drinking water, site: upper gastrointestinal tract, lesion: carcinoma, dosed 30 weeks, study length 133 weeks): 0.24 mg/kg/day
TD50 (rat, strain Fischer 344, females, in drinking water, site: upper gastrointestinal tract, lesion: carcinoma, dosed 60 weeks, study length 82 weeks): 0.0469 mg/kg/day
TD50 (rat, strain Fischer 344, females, in drinking water, site: upper gastrointestinal tract, lesion: several types, types named in the paper, dosed 30 weeks, study length 133 weeks): 0.708 mg/kg/day
TD50 (rat, strain Fischer 344, females, in drinking water, site: upper gastrointestinal tract, lesion: several types, types named in the paper, dosed 60 weeks, study length 82 weeks): 0.0297 mg/kg/day
TD50 (rat, strain Fischer 344, females, in drinking water, site: upper gastrointestinal tract, lesion: several types, types named in the paper, dosed 120 weeks, study length 133 weeks): 0.0914 mg/kg/day

Nc1c(N=Nc2ccc([N+](=O)[O-])cc2)c(S(=O)(=O)O)cc2cc(S(=O)(=O)O)c(N=Nc3ccccc3)c(O)c12
carcinogen call (rat, strain Not specified, females, in feed, site: any site (literature study), lesion: several types, types named in the paper, dosed 64 weeks, study length 64 weeks): negative (inactive)
carcinogen call (rat, strain Not specified, females, in feed, site: liver, lesion: one or several types, types not named, dosed 64 weeks, study length 64 weeks): negative (inactive)
carcinogen call (rat, strain Not specified, males, in feed, site: any site (literature study), lesion: several types, types named in the paper, dosed 64 weeks, study length 64 weeks): negative (inactive)
carcinogen call (rat, strain Not specified, males, in feed, site: liver, lesion: one or several types, types not named, dosed 64 weeks, study length 64 weeks): negative (inactive)

Oc1ccc2c(c1)OCO2
TD50 (mouse, strain B6C3F1, females, in feed, site: forestomach, lesion: sarcoma, dosed 96 weeks, study length 96 weeks): 44800 mg/kg/day
TD50 (mouse, strain B6C3F1, females, in feed, site: forestomach, lesion: squamous-cell carcinoma, dosed 96 weeks, study length 96 weeks): 8330 mg/kg/day
TD50 (mouse, strain B6C3F1, females, in feed, site: liver, lesion: hyperplastic nodule, dosed 96 weeks, study length 96 weeks): 44800 mg/kg/day
TD50 (mouse, strain B6C3F1, males, in feed, site: forestomach, lesion: squamous-cell carcinoma, dosed 96 weeks, study length 96 weeks): 3070 mg/kg/day
TD50 (mouse, strain B6C3F1, males, in feed, site: lung, lesion: adenoma, dosed 96 weeks, study length 96 weeks): 41300 mg/kg/day
TD50 (mouse, strain B6C3F1, males, in feed, site: stomach, glandular, lesion: sarcoma, dosed 96 weeks, study length 96 weeks): 41300 mg/kg/day
TD50 (rat, strain F344/DuCrj, females, in feed, site: forestomach, lesion: papilloma, dosed 104 weeks, study length 104 weeks): 1090 mg/kg/day
TD50 (rat, strain F344/DuCrj, females, in feed, site: forestomach, lesion: squamous-cell carcinoma, dosed 104 weeks, study length 104 weeks): 6500 mg/kg/day
TD50 (rat, strain F344/DuCrj, males, in feed, site: forestomach, lesion: papilloma, dosed 104 weeks, study length 104 weeks): 1350 mg/kg/day
TD50 (rat, strain F344/DuCrj, males, in feed, site: forestomach, lesion: several types, types named in the paper, dosed 60 weeks, study length 60 weeks): 708 mg/kg/day
TD50 (rat, strain F344/DuCrj, males, in feed, site: forestomach, lesion: squamous-cell carcinoma, dosed 60 weeks, study length 60 weeks): 3920 mg/kg/day
TD50 (rat, strain F344/DuCrj, males, in feed, site: forestomach, lesion: squamous-cell carcinoma, dosed 104 weeks, study length 104 weeks): 1540 mg/kg/day
TD50 (rat, strain F344/DuCrj, males, in feed, site: forestomach, lesion: squamous-cell papilloma, dosed 60 weeks, study length 60 weeks): 909 mg/kg/day
TD50 (rat, strain F344/DuCrj, males, in feed, site: stomach, glandular, lesion: adenoma, dosed 104 weeks, study length 104 weeks): 16200 mg/kg/day

COC(=O)c1ccc(C(=O)OC)cc1
TD50 (mouse, strain B6C3F1, females, in feed, site: any site (literature study), lesion: several types, types named in the paper, dosed 103 weeks, study length 105 weeks): 4340 mg/kg/day (inactive)
TD50 (mouse, strain B6C3F1, females, in feed, site: lung, lesion: alveolar/bronchiolar adenoma + alveolar/bronchiolar carcinoma, dosed 103 weeks, study length 105 weeks): 44000 mg/kg/day
TD50 (mouse, strain B6C3F1, males, in feed, site: lung, lesion: alveolar/bronchiolar adenoma + alveolar/bronchiolar carcinoma, dosed 103 weeks, study length 104 weeks): 1160 mg/kg/day (inactive) and 1160 mg/kg/day
TD50 (rat, strain Fischer 344, females, in feed, site: any site (literature study), lesion: several types, types named in the paper, dosed 103 weeks, study length 105 weeks): 342 mg/kg/day (inactive)
carcinogen call (rat, strain Fischer 344, males, in feed, site: any site (literature study), lesion: several types, types named in the paper, dosed 103 weeks, study length 105 weeks): negative (inactive)

CC(O)CN(C)c1ccc(NN)nn1 (stereo not drawn)
TD50 (mouse, strain B6C3F1, females, in drinking water, site: liver, lesion: several types, types named in the paper, dosed 80 weeks, study length 123 weeks): 503 mg/kg/day (inactive)
carcinogen call (mouse, strain B6C3F1, females, in drinking water, site: lung, lesion: several types, types named in the paper, dosed 80 weeks, study length 123 weeks): negative (inactive)
TD50 (mouse, strain B6C3F1, males, in drinking water, site: liver, lesion: several types, types named in the paper, dosed 80 weeks, study length 123 weeks): 922 mg/kg/day (inactive)
carcinogen call (mouse, strain B6C3F1, males, in drinking water, site: lung, lesion: several types, types named in the paper, dosed 80 weeks, study length 123 weeks): negative (inactive)
TD50 (mouse, strain BALB/cLacDp, females, in drinking water, site: all sites, lesion: lymphoma, dosed 80 weeks, study length 123 weeks): 408 mg/kg/day (inactive)
carcinogen call (mouse, strain BALB/cLacDp, females, in drinking water, site: liver, lesion: hepatocellular adenoma, dosed 80 weeks, study length 123 weeks): negative (inactive)
carcinogen call (mouse, strain BALB/cLacDp, females, in drinking water, site: lung, lesion: several types, types named in the paper, dosed 80 weeks, study length 123 weeks): negative (inactive)

O=[N+]([O-])c1ccc2ccc3cccc4ccc1c2c34
TD50 (rat, strain Fischer 344/Jcl, females, by gavage, site: all sites, lesion: mononuclear-cell leukemia, dosed 55 weeks, study length 104 weeks): 4.33 mg/kg/day
TD50 (rat, strain Fischer 344/Jcl, females, by gavage, site: clitoral gland, lesion: adenocarcinoma, dosed 55 weeks, study length 104 weeks): 157 mg/kg/day
TD50 (rat, strain Fischer 344/Jcl, females, by gavage, site: clitoral gland, lesion: several types, types named in the paper, dosed 55 weeks, study length 104 weeks): 6.16 mg/kg/day
TD50 (rat, strain Fischer 344/Jcl, females, by gavage, site: clitoral gland, lesion: squamous-cell carcinoma, dosed 55 weeks, study length 104 weeks): 6.08 mg/kg/day
TD50 (rat, strain Fischer 344/Jcl, females, by gavage, site: mammary gland, lesion: adenocarcinoma, dosed 55 weeks, study length 104 weeks): 4.82 mg/kg/day
TD50 (rat, strain Fischer 344/Jcl, females, by gavage, site: mammary gland, lesion: adenoma, dosed 55 weeks, study length 104 weeks): 51.4 mg/kg/day
TD50 (rat, strain Fischer 344/Jcl, females, by gavage, site: mammary gland, lesion: fibroadenoma, dosed 55 weeks, study length 104 weeks): 39.6 mg/kg/day
TD50 (rat, strain Fischer 344/Jcl, females, by gavage, site: mammary gland, lesion: several types, types named in the paper, dosed 55 weeks, study length 104 weeks): 3.33 mg/kg/day
TD50 (rat, strain Fischer 344/Jcl, females, by gavage, site: uterus, lesion: endometrial stromal polyp, dosed 55 weeks, study length 104 weeks): 13.1 mg/kg/day

CN=C(N)N
TD50 (rat, strain Wistar, males, in feed, site: liver, lesion: hemangioma, dosed 68 weeks, study length 68 weeks): 84 mg/kg/day

NNCCc1ccccc1
TD50 (mouse, strain Swiss albino, females, in drinking water, site: blood vessels, lesion: angiosarcoma, dosed 93 weeks, study length 93 weeks): 20.4 mg/kg/day
TD50 (mouse, strain Swiss albino, females, in drinking water, site: blood vessels, lesion: several types, types named in the paper, dosed 93 weeks, study length 93 weeks): 14.6 mg/kg/day
TD50 (mouse, strain Swiss albino, females, in drinking water, site: fat, lesion: angiosarcoma, dosed 93 weeks, study length 93 weeks): 23.7 mg/kg/day
TD50 (mouse, strain Swiss albino, females, in drinking water, site: liver, lesion: several types, types named in the paper, dosed 93 weeks, study length 93 weeks): 278 mg/kg/day
TD50 (mouse, strain Swiss albino, females, in drinking water, site: lung, lesion: adenoma, dosed 93 weeks, study length 93 weeks): 25.8 mg/kg/day
TD50 (mouse, strain Swiss albino, females, in drinking water, site: lung, lesion: angiosarcoma, dosed 93 weeks, study length 93 weeks): 123 mg/kg/day
TD50 (mouse, strain Swiss albino, females, in drinking water, site: lung, lesion: several types, types named in the paper, dosed 93 weeks, study length 93 weeks): 27.5 mg/kg/day
TD50 (mouse, strain Swiss albino, females, in drinking water, site: muscle, lesion: angiosarcoma, dosed 93 weeks, study length 93 weeks): 21.7 mg/kg/day
TD50 (mouse, strain Swiss albino, females, in drinking water, site: subcutaneous tissue, lesion: angiosarcoma, dosed 93 weeks, study length 93 weeks): 19.9 mg/kg/day
carcinogen call (mouse, strain Swiss albino, males, in drinking water, site: liver, lesion: several types, types named in the paper, dosed 99 weeks, study length 99 weeks): negative (inactive)
TD50 (mouse, strain Swiss albino, males, in drinking water, site: lung, lesion: adenoma, dosed 99 weeks, study length 99 weeks): 30 mg/kg/day (inactive)
TD50 (mouse, strain Swiss albino, males, in drinking water, site: lung, lesion: several types, types named in the paper, dosed 99 weeks, study length 99 weeks): 33.1 mg/kg/day (inactive)

N#Cc1ccc(C2CCCc3cncn32)cc1 (stereo not drawn)
carcinogen call (rat, strain Sprague-Dawley, females, by gavage, site: any site (literature study), lesion: several types, types named in the paper, dosed 104 weeks, study length 104 weeks): negative (inactive)
carcinogen call (rat, strain Sprague-Dawley, females, by gavage, site: liver, lesion: several types, types named in the paper, dosed 104 weeks, study length 104 weeks): negative (inactive)
carcinogen call (rat, strain Sprague-Dawley, females, by gavage, site: mammary gland, lesion: several types, types named in the paper, dosed 104 weeks, study length 104 weeks): negative (inactive)
carcinogen call (rat, strain Sprague-Dawley, males, by gavage, site: liver, lesion: several types, types named in the paper, dosed 104 weeks, study length 104 weeks): negative (inactive)

Nc1ccc(NCCO)c([N+](=O)[O-])c1
TD50 (mouse, strain B6C3F1, females, by gavage, site: any site (literature study), lesion: several types, types named in the paper, dosed 104 weeks, study length 105 weeks): 292 mg/kg/day
TD50 (mouse, strain B6C3F1, females, by gavage, site: forestomach, lesion: squamous-cell papilloma, dosed 104 weeks, study length 105 weeks): 721 mg/kg/day
TD50 (mouse, strain B6C3F1, females, by gavage, site: lung, lesion: alveolar/bronchiolar adenoma + alveolar/bronchiolar carcinoma, dosed 104 weeks, study length 105 weeks): 4670 mg/kg/day
TD50 (mouse, strain B6C3F1, males, by gavage, site: liver, lesion: hepatocellular adenoma + hepatocellular carcinoma + neoplastic nodule, dosed 104 weeks, study length 105 weeks): 427 mg/kg/day
TD50 (mouse, strain B6C3F1, males, by gavage, site: liver, lesion: hepatocellular adenoma + hepatocellular carcinoma, dosed 104 weeks, study length 105 weeks): 427 mg/kg/day
TD50 (mouse, strain B6C3F1, males, by gavage, site: lung, lesion: alveolar/bronchiolar adenoma + alveolar/bronchiolar carcinoma, dosed 104 weeks, study length 105 weeks): 1750 mg/kg/day
TD50 (rat, strain Fischer 344, females, by gavage, site: any site (literature study), lesion: several types, types named in the paper, dosed 105 weeks, study length 106 weeks): 4870 mg/kg/day (inactive)
TD50 (rat, strain Fischer 344, males, by gavage, site: any site (literature study), lesion: several types, types named in the paper, dosed 105 weeks, study length 106 weeks): 500 mg/kg/day (inactive)
TD50 (rat, strain Fischer 344, males, by gavage, site: liver, lesion: hepatocellular adenoma + hepatocellular carcinoma + neoplastic nodule, dosed 105 weeks, study length 106 weeks): 1.51e+06 mg/kg/day
